Measurements as given in patent publication US20080221205A1, “FURAN DERIVATIVES FOR PREVENTING AND CURING OSTEOPOROSIS AND PHARMACEUTICAL COMPOSITIONS CONTAINING THE SAME” (priority 2002, published 2008).

Experiments:
[1] = tested on: ovariectomized white mice; test: Bone mineral densitometer test, therapeutic effect on osteoporosis; format: in vivo; conditions: test group
Procedure: After ovariectomy, female white mice weighing about 250 g were bred for four weeks. After checking the onset of osteoporosis in the mice, each of the mice was orally administered with 220 μl of the Compound 1 dissolved in 30 ml water for four weeks.
BMD measurement was performed before ovariectomy and every week for eight weeks after ovariectomy, using a bone mineral densitometer, XCT 540 Research SA made in Germany.
After anesthetizing the mice being bred in cages by intraperitoneal injection of a mixture of Ketamine HCl (ketara 10 mg/kg) and 2% xylazine HCl (Roupun 0.15 ml/kg), BMD measurement was made at a voxel size of 0.1×0.1 mm^2 and threshold values of 280 mg/cm^2 for cancellous bone and 500 mg/cm^2 for compact bone. The analysis sites at the proximal tibias were determined by Scout scans (10 mm/sec), and BMD was measured at three slices at the determined sites by CT scans (7 mm/sec). BMD measurement was performed twice or more at the same site every week during eight weeks after ovariectomy.

[2] = tested on: ALP activity in HOS cells; test: Alkaline phosphatase (osteoblast marker enzyme) activity in HOS cells; format: cell-based, human; conditions: concentration not given
From the text: (§1) In the following tests, three kinds of cell lines were used. The human osteosarcoma cell lines, MG-63 (ATCC No. CRL-1427) and HOS (ATCC No. CRL-1543), and mouse muscle C2C12 muscle cells (ATCC No. CRL-1772) were purchased from ATCC (American Type Culture Collection, Rockville, USA), and cultured in Dulbecco's modified Eagle's medium (DMEM) supplemented with 10% fetal bovine serum (FBS).
To examine whether the Compound 1 affects positively or negatively osteoblast activity, alkaline phosphatase (ALP) activity was measured. HOS cells were aliquotted onto a 96-well microplate at a density of 5×10^3 cells per well, and cultured. When forming a monolayer, the cells were treated with the naturally extracted compound (Compound 1) at prescribed concentrations. After incubation in 10% FBS-containing DMEM for 48 hrs, the cells were treated with 0.1% Triton X-100/saline for 30 min at 37° C. A portion of each cell lysate was reacted with 0.1 N glycine-NaCh buffer (pH 10.4) for 30 min at 37° C. in the presence of 100 mM nitrophenyl phosphate (PNPP) as a substrate of alkaline phosphate. The amount of PNP (ρ-nitrophenol) released from the substrate PNPP was determined by measuring absorbance at 405 nm. Protein amount was determined by a modified Lowry method, and enzyme activity was designated as nmol substrate cleaved/h/mg protein.

[3] = tested on: osteoclast progenitor cells; test: Formation of TRAP-positive multinucleated cells from osteoclast progenitors; format: cell-based, mice; conditions: concentration not given, control 132
Procedure: In order to investigate the effects of the Compound 1 on differentiation and activity of osteoclasts, when differentiation of osteoclast progenitors was induced, the activity of Tartrate-resistant acid phosphatase (TRAP) as an osteoclastic marker enzyme was investigated, and, when differentiated osteoclasts were cultured on calcium phosphate-coated plates (OAAS, OCT Inc.), resorption activity (formation of resorption pits) were measured.
First, bone marrow cells were isolated, as follow. After sacrificing 7-9 week female mice by cervical dislocation, femur and tibia were excised aseptically while removing attached soft tissues. After cutting both ends of long bones, 1 ml of an enzyme solution, containing 0.1% collagenase (Gibco), 0.05% trypsin and 0.5 mM EDTA (Gibco), was injected to the bone marrow cavity at one end using a syringe with a 26-guage needle, and bone marrow was then collected. After shaking the recovered bone marrow for 30 min, bone marrow cells were collected, and cultured in α-minimum essential medium (α-MEM) supplemented with 10% FBS for 24 hrs. […]
Osteoclasts are derived from hematopoietic cells belonging to the monocyte/macrophage lineage originating in bone marrow. […] The formed TRAP-positive multinucleated cells containing three or more nuclei were counted as osteoclasts, and the counted cell number was compared to that of a control not treated with the Compound 1.

[4] = tested on: osteoprotegerin (OPG); test: Osteoprotegerin (OPG) expression in MG63 cells, OPG ELISA; format: cell-based, human; conditions: concentration not given
Procedure: as §1
When MG63 cells grew confluently on 96-well plates, […] of FBS-free DMEM containing various concentrations of the Compound 1 was added to each well. After incubation for 16 hrs, the culture supernatants were collected. The amount of OPG released into the medium was determined using an OPG ELISA kit.

[5] = listed as compound prepared in Example 1

**Q.** Which “Change in BMD, %” value ([1]; Week 1 after ovariectomy (before administration), control −3) does the source give for `O=Cc1ccc(CO)o1` [Compound 1, 5-hydroxymethylfuran-2-carboxyaldehyde] here?
**A.** −2.9%

**Q.** And the “Change in BMD, %” value ([1]; Week 3 after ovariectomy (before administration), control −15)?
**A.** −14%

**Q.** And the “Change in BMD, %” value ([1]; Week 4 after ovariectomy (start of oral 220 μl administration), control −19)?
**A.** −17%

**Q.** What about the “Change in BMD, %” value ([1]; Week 7 after ovariectomy, oral 220 μl from week 4, control −25.9) of the same compound?
**A.** −19%

**Q.** What about the “Alkaline phosphatase activity compared to control” value [2] of the same compound?
**A.** about 121%

**Q.** And the “Alkaline phosphatase activity compared to control” value [2, 5]?
**A.** 120%

**Q.** What about the “Number of TRAP-positive multinucleated cells” value [3] of the same compound?
**A.** 77

**Q.** And the “Number of TRAP-positive multinucleated cells” value [3, 5]?
**A.** remarkably reduced

**Q.** What about the “Expression of osteoprotegerin (OPG) in osteoblasts (in words)” value [4] of the same compound?
**A.** increases the expression of osteoprotegerin (OPG)
